molecular target: T1, PASK (Invitrogen) (Homo sapiens, UniProt Q96RG2); assay: PAS Kinase FRET Assay; format: biochemical; settings: PAS kinase TR-FRET assay (665 nm/615 nm); read-out: IC50 Kinase Domain
T1 construct: IC50 Kinase Domain; purchased Invitrogen
Excerpt: Biochemical Assay for hPASK Activity
The aim of the FRET assay is to determine the inhibition potential of test compounds on targeted kinase. This assay platform provides a homogenous screening method for measuring kinase activity by quantitating the amount of phospho-substrate in solution following a kinase reaction.
In the presence of kinase and ATP, the Ulight-peptide is phosphorylated and captured by an anti-phospho-substrate antibody, which brings the Eu chelate donor and Ulight acceptor dyes into close proximity. Upon excitation at 340 nm, the Eu chelate transfers its energy to the Ulight dye, resulting in a fluorescent light emission at 665 nm.
Titration of kinase at 1 mM ATP was achieved via the following protocol. After making serial three-fold dilutions of PASK (Invitrogen) in reaction buffer across the plate; 5 μl of kinase dilution and 5 μl substrate/ATP mix were added to the wells of the white Optiplate-384 (PerkinElmer). The contents of the plate were and incubated at RT for 1 h. The reaction was stopped by adding 5 μl of stop solution to each test well followed by mixing and incubation at RT for 10 minutes. 5 μl of detection mix (detection antibody diluted in detection buffer) was added; the contents of the plate were mixed and then incubated in the dark for 1 hour at RT. The signal was recorded at TR-FRET mode (665 nm/615 nm). The results were graphed to calculate the EC50.
Titration of ATP at the EC50 concentration of kinase to determine ATP Km,app. was performed using the following method. After making serial dilutions of ATP (Invitrogen), 5 μl of ATP dilution and 5 μl substrate/kinase mix were added to the wells of the white Optiplate-384 (PerkinElmer). The contents of the plate were and incubated at RT for 1 h. The reaction was stopped by adding 5 μl of stop solution to each test well followed by mixing and incubation at RT for 10 minutes. 5 μl of detection mix (detection antibody diluted in detection buffer) was added; the contents of the plate were mixed and then incubated in the dark for 1 hour at RT. The signal was recorded at TR-FRET mode (665 nm/615 nm). The results were graphed to calculate the EC50 as the ATP Km,app.
Compound screening was done via the following method. 10 mM stock solution of test compound in DMSO was prepared by dissolving test compound in DMSO at RT for 1 hour, and then sonicating at 100% output for 8 minutes. If compound is not soluble under this condition, it was diluted to 3 mM. Kinase reaction buffer was prepared containing 10 mM MgCl2, 50 mM HEPES, 1 mM EGTA, 0.01% TWEEN-20, 2 mM DTT. Serial dilutions of the test compounds were prepared at 4× final assay concentrations using Freedom EVO200® dispensing system as follows: 12×10^−5 M, 4×10^−5 M, 1.33×10^−5 M, 4.44×10^−6 M, 1.48×10^−6 M, 4.92×10^−7 M, 1.65×10^−7 M, […], 1.82×10^−8M, 6.09×10^−9, 2.03×10^−9 M. Test compounds (2.5 μl at 4× the final assay concentration) was added to wells using Freedom EVO200® dispensing system. As a positive control, 2.5 μl of positive compound was added to assay wells, and 2.5 μl of DMSO to assay wells as vehicle control. Kinase solution was prepared in reaction buffer at 2× final assay concentration. Kinase solution (5 μl) was added to each well of the assay plate. The substrate and ATP solution was prepared in kinase reaction buffer at 4× final assay concentration. The kinase reaction was started by adding 2.5 μl of substrate+ATP mix solution to each well of the assay plate. The plate is mixed on a plate shaker; then covered and allowed to react for 2 hours in the dark at 25° C. without shaking. The reaction was stopped by adding 5 μl of stop solution to each test well followed by mixing and incubation at RT for 10 minutes in the dark. 5 μl of detection mix (detection antibody diluted in detection buffer) was added; the contents of the plate were mixed and then incubated in the dark for 1 hour at RT. The signal was recorded at TR-FRET mode (665 nm/615 nm).

T1 sequence (Q96RG2 999-1251 limits assumed): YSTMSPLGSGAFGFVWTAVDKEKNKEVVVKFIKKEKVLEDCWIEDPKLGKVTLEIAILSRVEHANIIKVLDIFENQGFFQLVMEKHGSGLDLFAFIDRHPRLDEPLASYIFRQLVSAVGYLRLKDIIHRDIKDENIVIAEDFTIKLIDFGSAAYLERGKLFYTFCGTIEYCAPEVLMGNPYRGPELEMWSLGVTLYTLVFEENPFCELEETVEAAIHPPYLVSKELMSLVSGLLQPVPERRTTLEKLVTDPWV

Row | Structure (SMILES) | IC50 [µM]
1 | Cc1noc(-c2cnn3c(=O)cc(-c4ccc5occc5c4)[nH]c23)n1 [Example 62, 5-(benzofuran-5-yl)-3-(3-methyl-1,2,4-oxadiazol-5-yl)-4H,7H-pyrazolo[1,5-a]pyrimidin-7-one] | ≤ 10
2 | CC(C)Oc1cc(-c2cc(=O)n3ncc(-c4ccnn4C)c3[nH]2)ccc1Cl [Example 76, 5-(4-chloro-3-isopropoxyphenyl)-3-(1-methyl-1H-pyrazol-5-yl)pyrazolo[1,5-a]pyrimidin-7(4H)-one] | ≤ 10
3 | Cc1cnc(-c2cnn3c(=O)cc(-c4ccc5c(C)noc5c4)[nH]c23)o1 [Example 119, 5-(3-Methylbenzo[d]isoxazol-6-yl)-3-(5-methyloxazol-2-yl)pyrazolo[1,5-a]pyrimidin-7(4H)-one] | ≤ 10
4 | Cc1cnc(-c2cnn3c(=O)cc(-c4ccc(Cl)c(OCC(F)(F)F)c4)[nH]c23)o1 [Example 37, 5-[4-chloro-3-(2,2,2-trifluoroethoxy)phenyl]-3-(5-methyloxazol-2-yl)-4H,7H-pyrazolo[1,5-a]pyrimidin-7-one] | ≤ 10
5 | Cc1noc(-c2cnn3c(=O)cc(-c4ccc5c(cnn5C5COC5)c4)[nH]c23)n1 [Example 99, 3-(3-methyl-1,2,4-oxadiazol-5-yl)-5-(1-(oxetan-3-yl)-1H-indazol-5-yl)pyrazolo[1,5-a]pyrimidin-7(4H)-one] | ≤ 10
6 | CCOc1cc(-c2cc(=O)n3ncc(-c4ccnn4C)c3[nH]2)ccc1F [Example 78, 5-(3-ethoxy-4-fluorophenyl)-3-(1-methyl-1H-pyrazol-5-yl)pyrazolo[1,5-a]pyrimidin-7(4H)-one] | ≤ 10
7 | COc1cc(-c2cc(=O)n3ncc(-c4noc5ccccc45)c3[nH]2)ccc1Cl [Example 50, 3-(benzo[d]isoxazol-3-yl)-5-(4-chloro-3-methoxyphenyl)pyrazolo[1,5-a]pyrimidin-7(4H)-one] | ≤ 10
8 | Cc1cnc(-c2cnn3c(=O)cc(-c4ccc(Cl)c(Cl)c4)[nH]c23)s1 [Example 102, 5-(3,4-dichlorophenyl)-3-(5-methylthiazol-2-yl)pyrazolo[1,5-a]pyrimidin-7(4H)-one] | ≤ 10
9 | O=c1cc(-c2ccc(Cl)cn2)[nH]c2c(-c3ncco3)cnn12 [Example 113, 5-(5-chloropyridin-2-yl)-3-(1,3-oxazol-2-yl)-4H,7H-pyrazolo[1,5-a]pyrimidin-7-one] | > 10
10 | Cc1coc(-c2cnn3c(=O)cc(-c4ccc5[nH]nnc5c4)[nH]c23)n1 [Example 11, 5-(1H-1,2,3-benzotriazol-5-yl)-3-(4-methyl-1,3-oxazol-2-yl)-4H,7H-pyrazolo[1,5-a]pyrimidin-7-one] | ≤ 10
11 | CCCc1nn2c(=O)cc(-c3ccc4c(cnn4CC)c3)[nH]c2c1-c1nc(C)no1 [Example 116, 5-(1-ethyl-1H-indazol-5-yl)-3-(3-methyl-1,2,4-oxadiazol-5-yl)-2-propyl-4H,7H-pyrazolo[1,5-a]pyrimidin-7-one] | ≤ 10
12 | COc1cc(-c2cc(=O)n3ncc(-c4nc5ccccc5s4)c3[nH]2)ccc1Cl [Example 41, 3-(benzo[d]thiazol-2-yl)-5-(4-chloro-3-methoxyphenyl)pyrazolo[1,5-a]pyrimidin-7(4H)-one] | ≤ 10
13 | CCn1ncc2cc(-c3cc(=O)n4ncc(-c5nc6ccccc6o5)c4[nH]3)ccc21 [Example 33, 3-(benzo[d]oxazol-2-yl)-5-(1-ethyl-1H-indazol-5-yl)pyrazolo[1,5-a]pyrimidin-7(4H)-one] | ≤ 10
14 | O=c1cc(-c2ccc(Cl)cc2)[nH]c2c(-c3ncco3)cnn12 [Example 48, 5-(4-chlorophenyl)-3-(oxazol-2-yl)pyrazolo[1,5-a]pyrimidin-7(4H)-one] | ≤ 10
15 | CCn1nc(C)c2cc(-c3cc(=O)n4ncc(-c5ncc(C)o5)c4[nH]3)ccc21 [Example 105, 5-(1-Ethyl-3-methyl-1H-indazol-5-yl)-3-(5-methyloxazol-2-yl)pyrazolo[1,5-a]pyrimidin-7(4H)-one] | ≤ 10
16 | CCn1ncc2ccc(-c3cc(=O)n4ncc(-c5nc(C)no5)c4[nH]3)cc21 [Example 111, 5-(1-Ethyl-1H-indazol-6-yl)-3-(3-methyl-1,2,4-oxadiazol-5-yl)pyrazolo[1,5-a]pyrimidin-7(4H)-one] | ≤ 10
17 | Cc1cnc(-c2cnn3c(=O)cc(-c4ccc(Cl)c(OC(F)(F)F)c4)[nH]c23)o1 [Example 38, 5-[4-chloro-3-(trifluoromethoxy)phenyl]-3-(5-methyloxazol-2-yl)-4H,7H-pyrazolo[1,5-a]pyrimidin-7-one] | ≤ 10
18 | Cc1noc2cc(-c3cc(=O)n4ncc(-c5ncco5)c4[nH]3)ccc12 [Example 118, 5-(3-methylbenzo[d]isoxazol-6-yl)-3-(oxazol-2-yl)pyrazolo[1,5-a]pyrimidin-7(4H)-one] | ≤ 10
19 | COc1cc(-c2cc(=O)n3ncc(-c4nc5ccccc5o4)c3[nH]2)ccc1Cl [Example 45, 3-(benzo[d]oxazol-2-yl)-5-(4-chloro-3-methoxyphenyl)pyrazolo[1,5-a]pyrimidin-7(4H)-one] | ≤ 10
20 | COc1cc(-c2cc(=O)n3ncc(-c4nccs4)c3[nH]2)ccc1Cl [Example 39, 5-(4-chloro-3-methoxyphenyl)-3-(thiazol-2-yl)-4H,7H-pyrazolo[1,5-a]pyrimidin-7-one] | ≤ 10

Further lines, results first:

Row | IC50 [µM] | Structure (SMILES)
21 | ≤ 10 | CCc1nn2c(=O)cc(-c3ccc(Cl)c(OC)c3)[nH]c2c1-c1nc(C)no1 [Example 117, 5-(4-chloro-3-methoxyphenyl)-2-ethyl-3-(3-methyl-1,2,4-oxadiazol-5-yl)-4H,7H-pyrazolo[1,5-a]pyrimidin-7-one]
22 | ≤ 10 | N#Cc1cc(-c2cc(=O)n3ncc(-c4ncco4)c3[nH]2)ccc1O [Example 75, 2-hydroxy-5-(3-(oxazol-2-yl)-7-oxo-4,7-dihydropyrazolo[1,5-a]pyrimidin-5-yl)benzonitrile]
23 | ≤ 10 | Cc1noc(-c2c(C)nn3c(=O)cc(-c4ccc(Cl)cc4)[nH]c23)n1 [Example 8, 5-(4-chlorophenyl)-2-methyl-3-(3-methyl-1,2,4-oxadiazol-5-yl)-4H,7H-pyrazolo[1,5-a]pyrimidin-7-one]
24 | ≤ 10 | CCn1ncc2ccc(-c3cc(=O)n4ncc(-c5ncc(C)o5)c4[nH]3)cc21 [Example 112, 5-(1-ethyl-1H-indazol-6-yl)-3-(5-methyloxazol-2-yl)pyrazolo[1,5-a]pyrimidin-7(4H)-one]
25 | ≤ 10 | CCc1cnc(-c2cnn3c(=O)cc(-c4ccc5c(c4)OCO5)[nH]c23)o1 [Example 14, 5-(2H-1,3-benzodioxol-5-yl)-3-(5-ethyl-1,3-oxazol-2-yl)-4H,7H-pyrazolo[1,5-a]pyrimidin-7-one]
26 | ≤ 10 | Cc1noc2ccc(-c3cc(=O)n4ncc(-c5ncco5)c4[nH]3)cc12 [Example 110, 5-(3-methylbenzo[d]isoxazol-5-yl)-3-(oxazol-2-yl)pyrazolo[1,5-a]pyrimidin-7(4H)-one]
27 | ≤ 10 | CCOc1cc(-c2cc(=O)n3ncc(-c4ncc(CC)o4)c3[nH]2)ccc1Cl [Example 35, 5-(4-chloro-3-ethoxyphenyl)-3-(5-ethyloxazol-2-yl)-4H,7H-pyrazolo[1,5-a]pyrimidin-7-one]
28 | ≤ 10 | O=c1cc(-c2ccc3occc3c2)[nH]c2c(-c3nccs3)cnn12 [Example 44, 5-(benzofuran-5-yl)-3-(thiazol-2-yl)pyrazolo[1,5-a]pyrimidin-7(4H)-one]
29 | ≤ 10 | CCOc1cc(-c2cc(=O)n3ncc(-c4ncc(C)o4)c3[nH]2)ccc1F [Example 36, 5-(3-ethoxy-4-fluorophenyl)-3-(5-methyloxazol-2-yl)-4H,7H-pyrazolo[1,5-a]pyrimidin-7-one]

Source: patent US10392389B2, “Heterocyclic compounds for the inhibition of PASK” (BioEnergenix, LLC, priority 2012, dated 2019)
